Test results as given in the supplement of paper PMC11061612.

How the values were obtained:
[1] = system: TT2609-C02 (Thyroid Gland Carcinoma); assay: combination Emax (second highest fraction inhibited in the dose matrix, 72 h); higher = more inhibition; extreme values may be limits of the assay
In short: (§1)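 Bliss excess equals the observed combination effect minus the expected value EA + EB − EA·EB, where EA and EB are the effects of each agent alone. Combination Emax is the second-highest inhibition within the matrix. Inhibition was scaled from CellTiter-Glo 2.0 luminescence, with 0 set by vehicle wells and 1 by blank wells, after 72 hours of two-drug dosing of cells plated in 1536-well plates.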

[2] = system: MDST8 (Colorectal Carcinoma); assay: as above
In short: as §1

NCI-H2591 (Mesothelioma) [3] = assay: as above
In short: as §1

[4] = system: VCaP (Prostate Carcinoma); assay: Bliss excess, mean over the matrix (fraction); higher = more synergy
In short: as §1

[5] = system: OS-RC-2 (Kidney Carcinoma); assay: as above
In short: as §1

NY (Osteosarcoma) = assay: as above
In short: as §1

[6] = system: TT2609-C02 (Thyroid Gland Carcinoma); assay: as above
In short: as §1

[7] = system: CAL-29 (Bladder Carcinoma); assay: as above
In short: as §1

IGR-37 (Melanoma) = assay: as above
In short: as §1

[8] = system: SISO (Cervical Carcinoma); assay: as above
In short: as §1

[9] = system: MDST8 (Colorectal Carcinoma); assay: as above
In short: as §1

[10] = system: TT (Thyroid Gland Carcinoma); assay: as above
In short: as §1

[11] = system: SK-MG-1 (Low Grade Glioma); assay: as above
In short: as §1

[12] = system: NCI-H2141 (Small Cell Lung Carcinoma); assay: as above
In short: as §1

NCI-H2591 (Mesothelioma) [13] = assay: as above
In short: as §1

[14] = system: NCI-H2066 (Squamous Cell Lung Carcinoma); assay: as above
In short: as §1

CAS-1 (Glioblastoma) = assay: as above
In short: as §1

[15] = system: COLO-320-HSR (Colorectal Carcinoma); assay: as above
In short: as §1

[16] = system: NCI-H1581 (Non-Small Cell Lung Carcinoma); assay: as above
In short: as §1

[17] = system: HCC1954 (Breast Carcinoma); assay: as above
In short: as §1

| SMILES | combination Emax [1] | combination Emax [2] | combination Emax (NCI-H2591 (Mesothelioma) [3]) | Bliss excess [4] | Bliss excess [5] | Bliss excess (NY (Osteosarcoma)) | Bliss excess [6] | Bliss excess [7] | Bliss excess (IGR-37 (Melanoma)) | Bliss excess [8] | Bliss excess [9] | Bliss excess [10] | Bliss excess [11] | Bliss excess [12] | Bliss excess (NCI-H2591 (Mesothelioma) [13]) | Bliss excess [14] | Bliss excess (CAS-1 (Glioblastoma)) | Bliss excess [15] | Bliss excess [16] | Bliss excess [17] |
| --- | --- | --- | --- | --- | --- | --- | --- | --- | --- | --- | --- | --- | --- | --- | --- | --- | --- | --- | --- | --- |
| Cc1cc2ncnn2cc1Nc1ncc2c(n1)n(C1CCOCC1)c(=O)n2C [AZD7648] + C[C@@H]1COCCN1C2=NC(=NC(=C2)C3(CC3)[S@](=N)(=O)C)C4=C5C=CNC5=NC=C4 [AZD6738] (first compound max 10 µM, 7x7, partner max 10 µM) | 0.191 | 0.775 | 0.39 | 0.0437 | -0.0077 | -0.0052 | -0.0004 | -0.012 | -0.0228 | 0.0202 | -0.0085 | 0.0666 | 0.0011 | 0.0088 | 0.04 | 0.025 | 0.0024 | -0.0398 | 0.0217 | 0.0568 |
| Cc1cc2ncnn2cc1Nc1ncc2c(n1)n(C1CCOCC1)c(=O)n2C [AZD7648] + O=C(c1cc(Cc2n[nH]c(=O)c3ccccc23)ccc1F)N1CCN(C(=O)C2CC2)CC1 [Olaparib] (first compound max 10 µM, 7x7, partner max 10 µM) | 0.156 | 0.289 | 0.248 | -0.0336 | -0.0486 | -0.0311 | -0.0276 | -0.0288 | -0.057 | -0.0226 | -0.043 | -0.0702 | -0.0455 | -0.0603 | -0.0403 | -0.0624 | -0.0909 | -0.0169 | -0.0319 | -0.045 |
| NC1(C(=O)N[C@@H](CCO)c2ccc(Cl)cc2)CCN(c2ncnc3[nH]ccc23)CC1 [Capivasertib] + CC(=O)c1c(C)c2cnc(Nc3ccc(N4CCNCC4)cn3)nc2n(C2CCCC2)c1=O [Palbociclib] (first compound max 10 µM, 7x7, partner max 10 µM) | 0.376 | 0.656 | 0.364 | 0.0119 | 0.0249 | -0.0134 | -0.0398 | 0.0198 | -0.0344 | 0.0057 | -0.0378 | -0.001 | -0.0303 | -0.0936 | -0.0717 | -0.033 | -0.044 | -0.0013 | 0.0213 | -0.0292 |
| NC1(C(=O)N[C@@H](CCO)c2ccc(Cl)cc2)CCN(c2ncnc3[nH]ccc23)CC1 [Capivasertib] + CC(C)n1c(=O)n(C)c2cnc3cc(F)c(-c4ccc(OCCCN5CCCCC5)nc4)cc3c21 [AZD1390] (first compound max 10 µM, 7x7, partner max 0.3 µM) | 0.167 | 0.363 | 0.182 | -0.0389 | -0.0779 | -0.0643 | -0.0609 | -0.0702 | -0.0528 | -0.0782 | -0.0327 | -0.0945 | -0.111 | -0.0051 | -0.0804 | -0.0222 | -0.0671 | -0.0512 | -0.0784 | -0.056 |
| NC1(C(=O)N[C@@H](CCO)c2ccc(Cl)cc2)CCN(c2ncnc3[nH]ccc23)CC1 [Capivasertib] + CCN(CCO)CCCOc1ccc2c(Nc3cc(CC(=O)Nc4cccc(F)c4)[nH]n3)ncnc2c1 [AZD2811] (first compound max 10 µM, 7x7, partner max 1 µM) | 0.542 | 0.511 | 0.297 | 0.0328 | -0.0136 | -0.0531 | -0.0075 | -0.0319 | 0.0123 | 0.0229 | 0.011 | 0.002 | 0.0626 | -0.0237 | -0.0025 | -0.0641 | -0.0688 | -0.0018 | -0.11 | 0.0073 |
| NC1(C(=O)N[C@@H](CCO)c2ccc(Cl)cc2)CCN(c2ncnc3[nH]ccc23)CC1 [Capivasertib] + COc1nnc2ccc(N3CCC(c4ccc(OCCN5CCN(C)C(=O)[C@H]5C)cc4)CC3)nn12 [AZD5153] (first compound max 10 µM, 7x7, partner max 1 µM) | 0.461 | 0.733 | 0.334 | 0.0181 | 0.117 | -0.0649 | -0.0366 | 0.0937 | 0.0011 | 0.009 | 0.105 | 0.0241 | 0.0477 | 0.0061 | 0.0183 | 0.0135 | 0.0268 | -0.0289 | -0.0303 | 0.0641 |
| NC1(C(=O)N[C@@H](CCO)c2ccc(Cl)cc2)CCN(c2ncnc3[nH]ccc23)CC1 [Capivasertib] + C[C@@H]1COCCN1C2=NC(=NC(=C2)C3(CC3)[S@](=N)(=O)C)C4=C5C=CNC5=NC=C4 [AZD6738] (first compound max 10 µM, 7x7, partner max 10 µM) | 0.364 | 0.765 | 0.482 | -0.0179 | -0.0398 | -0.0287 | -0.0158 | -0.069 | 0.0138 | -0.0474 | -0.0277 | -0.0378 | -0.034 | 0.0049 | 0.0021 | -0.0782 | -0.0706 | -0.0883 | -0.0363 | 0.0105 |
| NC1(C(=O)N[C@@H](CCO)c2ccc(Cl)cc2)CCN(c2ncnc3[nH]ccc23)CC1 [Capivasertib] + Cn1cnc2c(F)c(Nc3ccc(Br)cc3Cl)c(C(=O)NOCCO)cc21 [Selumetinib] (first compound max 10 µM, 7x7, partner max 10 µM) | 0.542 | 0.757 | 0.469 | -0.0249 | -0.0412 | -0.0161 | -0.0213 | -0.0058 | -0.0258 | 0.0089 | 0.0211 | -0.0098 | 0.0059 | -0.051 | -0.0052 | -0.0867 | -0.0798 | 0.0222 | 0.0371 | 0.0405 |
| Cc1nc(Nc2ncc(C(=O)Nc3c(C)cccc3Cl)s2)cc(N2CCN(CCO)CC2)n1 [Dasatinib] + CC(=O)Nc1cccc(-n2c(=O)n(C3CC3)c(=O)c3c(Nc4ccc(I)cc4F)n(C)c(=O)c(C)c32)c1 [Trametinib] (first compound max 2 µM, 7x7, partner max 1 µM) | 0.748 | 0.781 | 0.527 | -0.0396 | -0.0396 | 0.034 | 0.0898 | 0.0133 | -0.121 | -0.0267 | -0.106 | -0.0272 | -0.0654 | -0.0362 | -0.0757 | -0.0033 | -0.107 | -0.0492 | -0.0416 | 0.0318 |
| COc1cccc2c1C(=O)c1c(O)c3c(c(O)c1C2=O)C[C@@](O)(C(=O)CO)C[C@@H]3O[C@H]1C[C@H](N)[C@H](O)[C@H](C)O1 [Doxorubicin] + Cc1cc2ncnn2cc1Nc1ncc2c(n1)n(C1CCOCC1)c(=O)n2C [AZD7648] (first compound max 1 µM, 7x7, partner max 10 µM) | 0.414 | 0.965 | 0.693 | 0.0275 | -0.0114 | 0.0578 | 0.0486 | 0.0489 | 0.0631 | 0.0937 | 0.0756 | 0.01 | 0.133 | 0.0099 | 0.0556 | -0.0396 | 0.105 | 0.0307 | 0.0529 | 0.0849 |
| COc1cc2ncnc(Nc3ccc(F)c(Cl)c3)c2cc1OCCCN1CCOCC1 [Gefitinib] + CC(C)n1c(=O)n(C)c2cnc3cc(F)c(-c4ccc(OCCCN5CCCCC5)nc4)cc3c21 [AZD1390] (first compound max 10 µM, 7x7, partner max 0.3 µM) | 0.0663 | 0.0181 | 0.0235 | -0.0429 | -0.0817 | -0.0355 | -0.0716 | -0.104 | -0.0865 | -0.0627 | -0.0584 | -0.0526 | -0.078 | -0.0464 | -0.0801 | 0.0099 | -0.0603 | -0.0398 | -0.0457 | -0.0366 |
| CS(=O)(=O)CCNCc1ccc(-c2ccc3ncnc(Nc4ccc(OCc5cccc(F)c5)c(Cl)c4)c3c2)o1 [Lapatinib] + C[C@@H](Oc1cc(-c2cnn(C3CCNCC3)c2)cnc1N)c1c(Cl)ccc(F)c1Cl [Crizotinib] (first compound max 10 µM, 7x7, partner max 10 µM) | 0.476 | 0.738 | 0.572 | -0.0653 | -0.0186 | -0.0118 | -0.023 | 0.0215 | -0.0432 | -0.0214 | -0.0095 | -0.002 | -0.0513 | -0.0758 | -0.0493 | -0.0066 | -0.0634 | -0.0416 | 0.0208 | 0.0048 |
| CC(=O)c1c(C)c2cnc(Nc3ccc(N4CCNCC4)cn3)nc2n(C2CCCC2)c1=O [Palbociclib] + CC1(C)CCC(CN2CCN(c3ccc(C(=O)NS(=O)(=O)c4ccc(NCC5CCOCC5)c([N+](=O)[O-])c4)c(Oc4cnc5[nH]ccc5c4)c3)CC2)=C(c2ccc(Cl)cc2)C1 [Venetoclax] (first compound max 10 µM, 7x7, partner max 1 µM) | 0.275 | 0.238 | 0.237 | -0.0076 | -0.0385 | -0.0479 | 0.0069 | -0.0523 | -0.0528 | -0.0384 | -0.0059 | 0.0138 | -0.0134 | -0.0298 | 0.0045 | -0.027 | -0.009 | -0.0625 | -0.029 | -0.0424 |
| CC(=O)c1c(C)c2cnc(Nc3ccc(N4CCNCC4)cn3)nc2n(C2CCCC2)c1=O [Palbociclib] + Cc1c2c(nn1C)CSCc1cc(n(C)n1)CSc1cc(c3ccccc3c1)OCCCc1c(C(=O)O)n(C)c3c-2c(Cl)ccc13 [AZD5991] (first compound max 10 µM, 7x7, partner max 1 µM) | 0.275 | 0.223 | 0.279 | -0.0284 | -0.0419 | -0.0358 | -0.0822 | -0.0532 | -0.0335 | -0.0282 | -0.0134 | 0.0684 | -0.0698 | -0.0791 | -0.0328 | -0.0361 | 0.0001 | -0.0746 | -0.0173 | -0.09 |
